“Also recorded” adds a separate entry of the source. Where two headings read alike, the source gives them in different places.
Columns and labels:
AChE [1] = molecular target: T1, AChE (Homo sapiens, UniProt P22303); settings: cited from earlier work; for IC50: read-out: IC50 against AChE
BuChE = settings: read-out: IC50 against BuChE, cited from earlier work
AChE [2] = molecular target: T1, AChE; assay: biochemical; settings: mean ± SD
Method: (§1) A previously described modified protocol of Ellman's spectrophotometric assay in clear flat-bottomed, 96-well plates, was used. […] The absorbance of each well was measured at 415 nm using a microplate reader. […]

BChE = BChE (Homo sapiens, UniProt P06276); assay: BChE inhibition, modified Ellman's spectrophotometric assay; assay type: biochemical
Method: as §1

AChE [3] = molecular target: T1, AChE; assay: Kinetic study of AChE inhibition (Lineweaver-Burk plots, Ellman's method); assay type: biochemical
Method: The kinetic study of AChE was carried out at five different concentrations (0–8 µM) of compound 4ad by Ellman's method. […]. The inhibition constant Ki was calculated by the plot of slopes versus the corresponding concentrations of the 4ad.

[4] = Fig. 2 traditional AChE inhibitors

T1 sequence (P22303 32-614): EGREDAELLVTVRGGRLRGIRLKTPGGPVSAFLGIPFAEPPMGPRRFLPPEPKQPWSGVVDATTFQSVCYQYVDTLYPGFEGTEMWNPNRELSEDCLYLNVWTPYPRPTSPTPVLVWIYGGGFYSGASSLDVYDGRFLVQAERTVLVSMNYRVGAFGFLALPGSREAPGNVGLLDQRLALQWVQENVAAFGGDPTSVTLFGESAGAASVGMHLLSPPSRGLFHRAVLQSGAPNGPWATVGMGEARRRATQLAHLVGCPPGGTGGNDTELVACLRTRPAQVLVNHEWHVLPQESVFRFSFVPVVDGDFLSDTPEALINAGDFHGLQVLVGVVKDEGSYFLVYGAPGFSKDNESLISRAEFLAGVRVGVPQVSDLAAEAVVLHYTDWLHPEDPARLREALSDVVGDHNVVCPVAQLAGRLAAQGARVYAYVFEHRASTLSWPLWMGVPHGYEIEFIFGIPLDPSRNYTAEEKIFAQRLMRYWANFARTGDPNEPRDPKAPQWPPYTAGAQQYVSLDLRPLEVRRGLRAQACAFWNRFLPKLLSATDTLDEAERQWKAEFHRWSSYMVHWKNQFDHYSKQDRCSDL
Sequence of BChE (P06276 29-602): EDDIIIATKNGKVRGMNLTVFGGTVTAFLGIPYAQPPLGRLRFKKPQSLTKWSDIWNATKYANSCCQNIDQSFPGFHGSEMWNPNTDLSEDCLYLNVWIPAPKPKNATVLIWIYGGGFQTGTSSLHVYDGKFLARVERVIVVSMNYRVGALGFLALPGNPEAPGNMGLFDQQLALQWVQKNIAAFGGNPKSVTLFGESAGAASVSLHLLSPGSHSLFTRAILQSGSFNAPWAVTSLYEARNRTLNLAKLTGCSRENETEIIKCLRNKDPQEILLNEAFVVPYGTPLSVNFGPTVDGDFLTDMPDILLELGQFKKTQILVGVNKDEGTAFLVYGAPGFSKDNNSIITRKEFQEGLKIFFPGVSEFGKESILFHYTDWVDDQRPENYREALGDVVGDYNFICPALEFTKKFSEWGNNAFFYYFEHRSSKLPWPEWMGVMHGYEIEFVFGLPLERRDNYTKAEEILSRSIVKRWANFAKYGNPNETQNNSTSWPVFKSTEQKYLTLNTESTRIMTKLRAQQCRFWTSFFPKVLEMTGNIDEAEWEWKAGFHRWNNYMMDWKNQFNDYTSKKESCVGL

SMILES | IC50 (AChE [1]; [4]) [µM] | IC50 (BuChE; [4]) [µM] | IC50 (AChE [1]; Fig. 3) [µM] | further results
O=C1c2ccccc2C(=O)N1Cc1cc[n+](Cc2ccc(F)cc2)cc1 [B] | 0.77 | 8.71 | – | –
c1ccc(C[n+]2ccc(-c3nc4ccccc4s3)cc2)cc1 [C] | 0.014 | 0.182 | – | –
CSc1c([N+](=O)[O-])c(C(C#N)C(N)=O)c(-c2ccc(Cl)cc2)n1-c1ccc(O)cc1 (stereo not shown) [Compound 4ad, 2-(2-(4-chlorophenyl)-1-(4-hydroxyphenyl)-5-(methylthio)-4-nitro-1H-pyrrol-3-yl)-2-cyanoacetamide] | – | – | – | inhibition at 50 µM (AChE [2]; 50 µM compound, NA = not active): 89.8 ± 2.36%; IC50 (AChE [2]): 2950 ± 1310 nM; BChE inhibition (in words) (BChE): no significant inhibition; also recorded: inactive; inhibition at 50 µM (BChE; 50 µM compound, mean ± SD, NA = not active): 20 ± 1.33%; type of AChE inhibition (AChE [3]; Lineweaver-Burk plots, Km and Vmax reduced with increasing inhibitor concentration): uncompetitive; Ki (AChE [3]; estimated from plot of Km versus concentrations of 4ad (0-8 µM), substrate acetylthiocholine 0.1-1 mM, read-out: inhibition constant, Ki): 2840 nM
O=C(NC1CCN(Cc2ccccc2)CC1)c1cc(-c2cccc([N+](=O)[O-])c2)on1 [F] | 16.1 | 15.2 | – | –
CN1CCC2COc3ccccc3C21 (stereo not shown) [H] | – | – | 7.75 | IC50 (BuChE; Fig. 3): 7.23 µM
CCOC(=O)c1[nH]c(-c2ccccc2)cc1-c1ccccc1 [I] | – | – | 128 | Ki (AChE [1]; Fig. 3, read-out: Ki against AChE): 104 ± 15.4 µM

Reference: paper PMC9454393 (Scientific Reports, 2022)
